For the assay, the system named is CEM cells HIV-1 protection, formazan growth assay. Briefly: NCI AIDS Antiviral Assay. The conditions noted are these: for IC50: measured here: growth of uninfected CEM cells. Summed up:
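Human CEM cells, uninfected and HIV-1-infected, exposed to five drug concentrations; growth measured by soluble formazan assay and scored as percent protection from infection, with protecting compounds retested.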

Values joined by “and” are separate entries in the source; they are usually repeats but may differ in a detail not shown here. Equal values may be shown once. Active and inactive are the calls of the source.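 Rule for the calls: active = compounds giving half or more protection of infected cells from virus-caused growth loss, again on retest; inactive = the rest.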 Where a SMILES comes first, the peptide text is derived from it. Bridges are numbered along the chain shown (N, C = ends). [ ]: non-standard residue; d: D form. The star is where a group is joined. Orn = NCCC[CH](N)C(=O)O; Cbz = O=C(OCc1ccccc1)*

Take `COC(=O)CN1C(=O)C2(C(=O)OC)OC1(c1ccc([N+](=O)[O-])cc1)C1C(=O)N(c3ccccc3)C(=O)C12` (stereo not drawn): the EC50 – broadly, the midpoint of the concentration-response curve – was > 200 µM and the IC50 (usually the point on the concentration scale where inhibition reaches its midpoint) is > 200 µM.

`Nc1nc(Cl)c(Cl)c(NCC2(O)CCC2)n1`: the EC50 is > 200 µM and the IC50 amounted to 20.9 µM.

Turning to `CN1CC2=C(OC(N)=C(C#N)C2c2cccs2)/C(=C/c2cccs2)C1` (stereo not drawn), the EC50 was > 200 µM and the IC50 turned out to be 8.13 µM.

For `O=c1c2cc([N+](=O)[O-])ccc2n2n1CCCC2`, the EC50 is > 200 µM and the 50% inhibitory concentration (IC50) was > 200 µM.

Turning to `COC(=O)C1CCC(=O)N1C(c1ccc(OC)cc1)c1cc(OC)c(OC)c(OC)c1` (stereo not drawn), the EC50 is > 2 µM and the IC50 worked out at 0.1 µM.

Turning to `CCO[C@H]1OC(=O)[C@@H]2C(c3ccc([N+](=O)[O-])cc3)=NO[C@H]12`, the EC50 was > 46.8 µM and the IC50 is > 46.8 µM.

As for `COc1cnc([C@H]2CCC3[C@@H]4CC=C5C[C@@H](O)CC[C@]5(C)C4CC[C@@]32C)s1` (stereo partly drawn), the EC50 is > 4.9 µM and the IC50 is > 4.9 µM.

For `O=C1c2cc(Cl)ccc2OC2CCON12` (stereo not drawn), the EC50 was > 200 µM and the half-inhibitory concentration (IC50) is > 200 µM.

For the molecule `ON=C1CCCCC(=NO)CCCC1`, the EC50 was > 200 µM and the IC50 is > 200 µM.

Take `Cc1cc2c(=O)cc(-c3cccs3)oc2c(C(=O)O)c1C`: the outcome was inactive.

For the molecule `CCOC(=O)C(CC(=O)OC)NC(=O)C(CC(=O)OC)NC(=O)C(CC(=O)OC)NC(=O)C(CC(=O)OC)NC(=O)OCc1ccccc1` (stereo not drawn) (Cbz-D(OMe)D(OMe)D(OMe)D(OMe)-OEt; configuration not given here), the EC50 was > 200 µM and the IC50 was > 200 µM.

As to `CC(C)[C@H]1CO[C@]2(C)[C@@H]3CN(Cc4ccccc4)C[C@@H]3C(=O)N12`, the EC50 is > 214 µM and the IC50 is > 214 µM.

For the molecule `O=c1ccc2ccccc2n1O`, the EC50 is > 200 µM and the IC50 is > 200 µM.

In the case of `CC(=O)NC1=CC(=O)C=C(Cl)C1=O`, the EC50 is > 200 µM and the IC50 was 32.4 µM.

Regarding `C/C(Cl)=N\OC(=O)Nc1ccc(C)cc1`, the EC50 was > 200 µM and the IC50 stood at 18.6 µM.

`CSc1nc2c(=O)oc(-c3ccccc3)nc2s1`: the EC50 was > 200 µM and the IC50 was found to be 6.03 µM.

For the molecule `CC(=O)OC(C)(C)/C=C/C(=O)[C@](C)(O)[C@H]1[C@H](O)C[C@@]2(C)[C@@H]3CC=C4[C@@H](C[C@H](O)C(=O)C4(C)C)[C@]3(CO)C(=O)C[C@]12C`, the EC50 was > 4.37 µM and the IC50 came to 0.129 µM.

In the case of `O=S(=O)([O-])[O-].O=c1[nH]cnc2nc[n-]c12.[OH3+].[OH3+].[Zn+2]`, the EC50 was > 21.4 µM and the IC50 was > 21.4 µM.

Consider `C[C@H](OC(=O)/C=C/c1ccc(O)c(O)c1)[C@H](C)OC(=O)/C=C/c1ccc(O)c(O)c1`, for which the EC50 was > 200 µM and the IC50 stood at 3.47 µM.

For `CC[C@@H](C)[C@H]([C@H](CC(=O)N1CCC[C@@H]1[C@@H](OC)[C@H](C)C(=O)N[C@H](Cc1ccccc1)c1nccs1)OC)N(C)C(=O)[C@H](NC(=O)[C@@H](C(C)C)N(C)C)C(C)C`, the EC50 was > 316 µM and the IC50 was 0.1 µM.

`CCCOCC(=O)OC`: the EC50 was > 1910 µM and the IC50 is > 1910 µM.

In the case of `CSc1nc(C)c(Br)c(=O)n1C1OC(COC(C)=O)C(OC(C)=O)C(OC(C)=O)C1OC(C)=O` (stereo not drawn), the EC50 is > 200 µM and the IC50 is > 200 µM.

For `O=c1nc(NC(c2ccccc2)(c2ccccc2)c2ccccc2)ccn1CCNCCn1ccc(NC(c2ccccc2)(c2ccccc2)c2ccccc2)nc1=O`, the EC50 is > 9.33 µM and the IC50 is > 9.33 µM.

Take `Cc1occc1C(=S)Nc1ccc(Cl)c(/C=N/OC(C)(C)C)c1`: the EC50 was 0.195 µM and the IC50 turned out to be 14.8 µM.

Regarding `Cc1ccc(SCC(OCn2cnc3c(Cl)nc(N)nc32)[C@H](C)F)cc1` (stereo partly drawn), the EC50 is > 200 µM and the IC50 was found to be 24 µM.

Consider `CN1C(=O)C(O)(Cc2nccc3ccccc23)c2ccccc21` (stereo not drawn), for which the EC50 was > 200 µM and the IC50 was found to be 36.3 µM.

Regarding `CN1COCN=C1NC#N`, the EC50 is > 631 µM and the IC50 was > 631 µM.

For the molecule `CC(C)(C)/C(O)=C\c1nc2cc(F)c(F)cc2[nH]c1=O`, the EC50 was > 200 µM and the IC50 was determined as 182 µM.

Take `Cc1[nH]c(=O)n2c(C)nnc2c1C(=O)Nc1cc(Cl)cc(Cl)c1`: the result was inactive.

With `CC(=O)NC(CCCCN(Cc1ccccc1)C(=O)N(CCCl)N=O)C(=O)NCc1ccccc1` (stereo not drawn), the EC50 was > 72.4 µM and the IC50 was > 72.4 µM.

In the case of `O=c1nc(Nc2cccc(Cl)c2)oc2cc(Cl)oc(=O)c12`, the EC50 was > 79.4 µM and the IC50 came out at 11.5 µM.

As to `NP(N)(=O)Nc1ccccc1`, the EC50 is 10.5 µM and the IC50 was > 200 µM.

As to `CN(C)c1ccc(C2SCC(=O)N2NS(=O)(=O)c2cccc(C(=O)O)c2)cc1` (stereo not drawn), the EC50 is > 200 µM and the IC50 was found to be 79.4 µM.

Turning to `OCCC(Sc1ccccc1)Sc1ccccc1`, the result was inactive.

On to `COC1=C(N)C(=O)c2nc(C)ccc2C1=O`, for which the outcome was inactive.

With `COc1cc2c(cc1OC)c1c(OC)c(OC)cc3c1c1c2sc(=S)n1CC3`, the result was inactive.

`CC(C)CCC[C@H](C)[C@H]1CC[C@H]2[C@@H]3CC=C4CC(OC(=O)OC5CCC6(C)CC7CCC6(OO7)C5(C)C)CC[C@]4(C)[C@H]3CC[C@]12C` (stereo partly drawn): the EC50 is > 200 µM and the IC50 was > 200 µM.

As for `O=C(CC(C(=O)c1cccs1)c1ccsc1)c1ccccc1` (stereo not drawn), the EC50 was > 200 µM and the IC50 was found to be 151 µM.

On to `O=C1CC2(CCNCC2)C(=O)N1N1CCCC1`, for which the EC50 is > 200 µM and the IC50 was > 200 µM.

For `CO/N=C1/C(n2[nH]c(=O)n(-c3ccccc3)c2=O)C2C=CC1n1c(=O)n(-c3ccccc3)c(=O)n12` (stereo not drawn), the EC50 is > 200 µM and the IC50 was > 200 µM.

In the case of `[Co].[NH-]CC[NH-].[NH-]CC[NH-].[NH-]CC[NH-]`, the EC50 is > 200 µM and the IC50 is > 200 µM.

Turning to `O=C(O)c1ccccc1SSc1ccccc1C(=O)O`, the EC50 is 112 µM and > 589 µM and > 200 µM; the 50% inhibitory concentration (IC50) is 589 µM and > 589 µM and > 200 µM.

As for `C=CCOc1ccc(N)c([N+](=O)[O-])c1`, the EC50 was > 200 µM and the concentration for half-maximal inhibition (IC50) is > 200 µM.

With `O=c1c2ccccc2c2c3c1cccc3c1cccc3c(=O)c4ccccc4c2c31`, the EC50 was > 7.08 µM and the IC50 is > 7.08 µM.

As for `COC1=C(C(=O)O)P(C)(=O)CC1` (stereo not drawn), the EC50 was > 214 µM and the IC50 is > 214 µM.

For the molecule `COC12C=CC(CC1)C(C)(C)C2O` (stereo not drawn), the EC50 was > 200 µM, the outcome was inactive and the IC50 was > 200 µM.

For `COS(=O)c1cc(Cl)cc(Cl)c1O` (stereo not drawn), the outcome was inactive.

Turning to `COC(=O)CCCC=C(c1cc(C)c(OC)c(C(=O)OC)c1)c1cc(C)c(OC)c(C(=O)OC)c1`, the EC50 is 2.4 µM and the IC50 came out at 89.1 µM.

In the case of `CC(C)(C)c1ccc2c(c1)CNCCNCc1cc(C(C)(C)C)ccc1OCC1(CO2)COc2ccc(C(C)(C)C)cc2CNCCNCc2cc(C(C)(C)C)ccc2OC1`, the EC50 was > 1.51 µM and the IC50 is 0.219 µM.

As for `COc1cccc(/C=C/c2nc3ccccc3nc2/C=C/c2cccc(OC)c2OC)c1OC`, the EC50 was > 200 µM and the IC50 was 55 µM.

`C=CC1(O)CCCC=C1COCc1ccccc1` (stereo not drawn): the EC50 was > 200 µM and the IC50 turned out to be 33.1 µM.

In the case of `O=[N+]([O-])c1ccc(P2(=O)Nc3ccccc3N2)cc1`, the EC50 was > 245 µM and the IC50 worked out at 70.8 µM.

As to `Cc1ccc(S(=O)(=O)Oc2nc3ccccc3nc2N(S(=O)(=O)c2ccc(C)cc2)S(=O)(=O)c2ccc(C)cc2)cc1`, the EC50 was > 200 µM and the IC50 is 17.4 µM.

In the case of `NC(CSC(c1ccccc1)(c1ccccc1)c1ccccc1)C(=O)O` (stereo not drawn), the EC50 was > 49 µM and the half-inhibitory concentration (IC50) worked out at 0.813 µM.

For the molecule `CCOc1ccccc1/C=C1\NC(=O)NC1=O`, the EC50 was > 200 µM and the IC50 is > 200 µM.

Regarding `Cc1nc(Nc2nc3ccccc3[nH]2)nc(Cl)c1CCCl`, the outcome was inactive.

In the case of `CNc1cc(Cl)ccc1S(=O)(=O)c1ccccc1[N+](=O)[O-]`, the half-maximal effective concentration (EC50) was 5.37 µM and the IC50 was > 200 µM.

Take `CCCCNc1nc(N)nc(Nc2ccc(Br)cc2)c1N=O`: the EC50 was > 55 µM and the IC50 came out at 23.4 µM.

For `C=C(Cl)CSC(=S)N1CCOCC1`, the result was inactive.

As for `Cc1cn(C2CC(OC(c3ccccc3)(c3ccccc3)c3ccccc3)C(COC(c3ccccc3)(c3ccccc3)c3ccccc3)O2)c(=O)[nH]c1=O` (stereo not drawn), the EC50 is > 200 µM and the IC50 was > 200 µM.

Turning to `O=C(N/C(=C\c1ccc(/C=C(\NC(=O)c2ccccc2)c2nc3ccccc3[nH]2)cc1)c1nc2ccccc2[nH]1)c1ccccc1`, the outcome was inactive.

In the case of `COC(=O)C1=COC(C)C2C[n+]3ccc4c([nH]c5ccccc54)c3CC12` (stereo not drawn), the EC50 is > 200 µM and the IC50 was > 200 µM.

Consider `CCCCCN(CCCCC)c1ccc(/C=C/c2ccnc3ccccc23)cc1`, for which the EC50 is > 67.6 µM and the IC50 was > 67.6 µM.

For the molecule `c1cc2nnsc2s1`, the EC50 was > 251 µM and the IC50 is > 251 µM.

As to `CC(CC(=O)Nc1ccc(NC(=O)CC(C)N=NC(N)=O)cc1)N=NC(N)=O` (stereo not drawn), the EC50 was > 129 µM and the IC50 was > 129 µM.

Consider `O=C1/C(=C/c2ccc(Cl)cc2)CCC/C1=C\c1ccc(O)c(CN2CCCCC2)c1`, for which the EC50 was > 100 µM and the IC50 stood at 5.25 µM.

With `NC(=O)N/N=C(\CCC(=O)N(Cc1ccccc1)Cc1ccccc1)CC(=O)c1ccc(F)cc1`, the EC50 is > 200 µM and the IC50 is > 200 µM.

Regarding `NC(=O)C1CC(=O)NCCCC(NC(=O)C(N)Cc2ccc(O)cc2)C(=O)NC(Cc2ccccc2)C(=O)N1` (stereo not drawn) (H-Y[Orn]FD-NH2; lactam 2-4; configuration not given here), the EC50 is > 100 µM and the half-inhibitory concentration (IC50) was > 100 µM.

Values taken from PubChem BioAssay AID179 (DTP/NCI, 2004).
